According to patent publication EP1100483B1, “GLUCOCORTICOID-SELECTIVE ANTI-INFLAMMATORY AGENTS” (Abbott Laboratories, priority 1998, dated 2000):

biological target: T1, human glucocorticoid receptor-α [GRX] isoform (Homo sapiens, UniProt P04150); experiment: glucocorticoid receptor (GR) cytosol binding assay, [3H]-dexamethasone competition; conditions: not given
T1 construct: purchased Ligand Pharmaceuticals (San Diego, CA); host or cells: insect SF21 cells (baculovirus)
T1 sequence (P04150 1-777): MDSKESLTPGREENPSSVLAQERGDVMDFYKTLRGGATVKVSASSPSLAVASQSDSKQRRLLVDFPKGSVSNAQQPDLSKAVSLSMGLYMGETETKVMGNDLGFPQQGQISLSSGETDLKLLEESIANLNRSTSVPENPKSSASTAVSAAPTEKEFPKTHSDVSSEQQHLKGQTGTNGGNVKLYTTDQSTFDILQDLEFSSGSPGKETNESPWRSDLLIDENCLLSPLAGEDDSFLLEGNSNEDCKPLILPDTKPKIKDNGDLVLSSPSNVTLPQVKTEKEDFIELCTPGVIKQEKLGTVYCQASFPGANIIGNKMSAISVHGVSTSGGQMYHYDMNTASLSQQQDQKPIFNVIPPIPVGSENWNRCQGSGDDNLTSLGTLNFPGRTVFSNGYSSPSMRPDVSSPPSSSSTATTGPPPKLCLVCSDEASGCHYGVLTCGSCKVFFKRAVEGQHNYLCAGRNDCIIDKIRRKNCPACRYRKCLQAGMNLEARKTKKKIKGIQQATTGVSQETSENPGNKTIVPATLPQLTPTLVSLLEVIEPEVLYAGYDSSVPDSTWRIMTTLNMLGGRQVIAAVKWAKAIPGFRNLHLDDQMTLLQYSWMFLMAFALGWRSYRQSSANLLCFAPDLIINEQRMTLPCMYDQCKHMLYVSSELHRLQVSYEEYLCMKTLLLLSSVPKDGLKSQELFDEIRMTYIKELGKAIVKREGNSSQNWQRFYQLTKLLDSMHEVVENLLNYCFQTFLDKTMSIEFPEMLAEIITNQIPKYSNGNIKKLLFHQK
Text: For glucocorticoid receptor (OR) cytosol binding assays, the procedure described in Anal. […] Briefly, cytosol preparations of human glucocorticoid receptor-α [GRX] isoform and human progesterone receptor-A [PRA] isoform were obtained from Ligand Pharmaceuticals (San Diego, CA). Both receptor cDNAs were cloned into baculovirus expression vectors and expressed in insect SF21 cells. […] Glass fiber type C multiscreen MAFC NOB plates were from Millipore ( Burlington, MA). Hydroxyapatide Bio-Gel HTP gel was obtained from Bio-Rad Laboratories (Hercules. CA). Tris(hydroxymethyl)aminomethane (Tris), ethylenediaminetetraacetic acid (EDTA), glycerol, dithiothreitol (DTT) and sodium moylybdate were obtained from Sigma Chemicals (St. Louis, MO). Microscint-20 scintillation fluid was obtained from Packard Instrument (Meriden, CT). […] GRX and PRA binding reactions were performed in Millipore Multiscreen plates. […] Specific binding was defined as the difference between binding of [^3H]Dex in the absence and in the presence of 1µM unlabeled Dex. After an overnight incubation, 50 µL of hydroxyapatite (25 % weight/volume) slurry were added to each well and plates were incubated for 10 min at 4 °C in a plate shaker. Plates were suctioned with a Millipore vacuum manifold and each well was rinsed with 300 µL of ice-cold binding buffer. A 250 µL aliquot of Packard Microscint-20 was added to each well and the wells were shaken at room temperature for 20 minutes. The amount of radioactivity was determined with a Packard TopCount plate reader.

Compound | Ki [nM]
CN(C)c1ccc(C(c2ccc(N(C)C)cc2)c2cc(NC(=O)c3ccc([N+](=O)[O-])cc3)ccc2Cl)cc1 [Example 60, 4',4" bis(dimethylamino)-2-chloro-5-(4-nitrobenzamido)triphenylmethane] | 4650

same assay, conditions: [3H]-Dex ~0.9 nM, GRX cytosol, 4 °C overnight; Cheng-Prusoff; read-out: Ki (nM) GR

Compound | Ki [nM]
CN(C)c1ccc(C(c2ccccc2)c2cc([N+](=O)[O-])ccc2Cl)cc1 (stereo not shown) [Example 56, 4'-dimethylamino-2-chloro-5-nitrotriphenylmethane] | 1030
CN(C)c1ccc(C(O)(c2ccccc2)c2ccccc2Cl)cc1 (stereo not shown) [Example 57, 4'-dimethylamino-2-chlorotriphenylmethanol] | 2030
CN(C)c1ccc(C(c2ccccc2)c2ccccc2Cl)cc1 (stereo not shown) [Example 58, 4'-dimethylamino-2-chlorotriphenylmethane] | 4300

Further lines, results first:

Ki [nM] | Compound
4600 | CN(C)c1ccc(C(c2ccc(N(C)C)cc2)c2cc(N)ccc2Cl)cc1 [Example 59, 4',4" bis(dimethylamino)-5-amino-2-chlorotriphenylmethane]
4600 | CN(C)c1ccc(C(c2ccc(N(C)C)cc2)c2cc(NC(=O)C3CC3)ccc2Cl)cc1 [Example 62, 4',4" bis(dimethylamino)-2-chloro-5-(cyclopropylcarbamido)-triphenylmethane]
4600 | CN(C)c1ccc(C(c2ccc(N(C)C)cc2)c2cc(N(S(C)(=O)=O)S(C)(=O)=O)ccc2Cl)cc1 [Example 63, 4',4" bis(dimethylamino)-2-chloro-5-(dimethylsulphonimido)triphenylmethane]
5270 | COC(=O)Nc1ccc(Cl)c(C(c2ccc(N(C)C)cc2)c2ccc(N(C)C)cc2)c1 [Example 64, 4',4" bis(dimethylamino)-2-chloro-5-(methoxycarbonylamino)triphenylmethane]
1790 | CN(C)c1ccc(C(c2ccc(N(C)C)cc2)c2cc(N=Cc3ccco3)ccc2Cl)cc1 [Example 65, 4',4" bis(dimethylamino)-2-chloro-5-(2-furanylmethylimino)triphenylmethane]
757 | CN(C)c1ccc(C(c2ccc(N(C)C)cc2)c2cc(NCc3ccco3)ccc2Cl)cc1 [Example 66, 4',4" bis(dimethylamino)-2-chloro-5-(2-furanylmethylamino)triphenylmethane]
